ChEMBL document CHEMBL1201862, “PubChem BioAssay data set” (2004)
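A five-concentration, 48-hour dose response in 96-well plates underlies each endpoint, interpolated linearly between surrounding concentrations. GI50 = concentration required for 50% inhibition of growth.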 Calls of active or inactive are those of the source. Rule as the data show it: active = GI50 up to about 1.1 µM and inactive = higher.

Key:
Assay in all cases: growth of human tumour cells (NCI), 48 h
[1] = tested on: HOP-92
[2] = tested on: Malme-3M
[3] = tested on: HCT-116
[4] = tested on: TK-10
[5] = tested on: EKVX
[6] = tested on: HL-60
[7] = tested on: RPMI-8226
[8] = tested on: SK-MEL-5
[9] = tested on: M19-MEL
[10] = tested on: IGROV-1
[11] = tested on: SF-295
[12] = tested on: DLD-1
[13] = tested on: OVCAR-8
[14] = tested on: DMS-273
[15] = tested on: NCI-H23
[16] = tested on: CCRF-CEM
[17] = tested on: OVCAR-3
[18] = tested on: KM12
[19] = tested on: HT-29
[20] = tested on: XF498
[21] = tested on: MOLT-4
[22] = tested on: 786-0
[23] = tested on: SW-620
[24] = tested on: COLO 205
[25] = tested on: HOP-62
[26] = tested on: HCC 2998
[27] = tested on: NCI-H226
[28] = tested on: K562
[29] = tested on: HCT-15
[30] = tested on: ACHN
[31] = tested on: RXF 631
[32] = tested on: SK-OV-3
[33] = tested on: A549
[34] = tested on: RXF 393
[35] = tested on: UACC-62
[36] = tested on: CAKI-1
[37] = tested on: KM-20L2
[38] = tested on: LOX IMVI
[39] = tested on: NCI-H522
[40] = tested on: SNB-78
[41] = tested on: OVCAR-4
[42] = tested on: SNB-19
[43] = tested on: SK-MEL-2
[44] = tested on: NCI-H460
[45] = tested on: OVCAR-5
[46] = tested on: UO-31
[47] = tested on: LXFL 529
[48] = tested on: SNB-75
[49] = tested on: SN12C
[50] = tested on: SF-268
[51] = tested on: U-251
[52] = tested on: DMS-114
[53] = tested on: SF-539
[54] = tested on: SR
[55] = tested on: SK-MEL-28
[56] = tested on: UACC-257
[57] = tested on: M14
[58] = tested on: A498

O=C(C(=O)c1cc2ccccc2[nH]1)c1cc2ccccc2[nH]1
GI50 [1]: > 127 µM (inactive) | GI50 [2]: 152 µM (inactive) | GI50 [3]: 98.6 µM (inactive) | GI50 [4]: > 347 µM (inactive) | GI50 [5]: > 347 µM (inactive) | GI50 [6]: 195 µM (inactive) | GI50 [7]: 22 µM (inactive) | GI50 [8]: > 301 µM (inactive) | GI50 [9]: > 195 µM (inactive) | GI50 [10]: > 347 µM (inactive) | GI50 [11]: > 347 µM (inactive) | GI50 [12]: > 316 µM (inactive) | GI50 [13]: > 224 µM (inactive) | GI50 [14]: > 318 µM (inactive) | GI50 [15]: > 255 µM (inactive) | GI50 [16]: > 247 µM (inactive) | GI50 [17]: 12.8 µM (inactive) | GI50 [18]: > 347 µM (inactive) | GI50 [19]: > 347 µM (inactive) | GI50 [20]: > 176 µM (inactive) | GI50 [21]: 24 µM (inactive) | GI50 [22]: > 284 µM (inactive) | GI50 [23]: 153 µM (inactive) | GI50 [24]: > 347 µM (inactive) | GI50 [25]: > 183 µM (inactive) | GI50 [26]: > 347 µM (inactive) | GI50 [27]: > 347 µM (inactive) | GI50 [28]: > 332 µM (inactive) | GI50 [29]: 94.2 µM | GI50 [30]: > 347 µM (inactive) | GI50 [31]: > 347 µM (inactive) | GI50 [32]: > 347 µM (inactive) | GI50 [33]: > 347 µM (inactive) | GI50 [34]: 91.4 µM (inactive) | GI50 [35]: > 347 µM (inactive) | GI50 [36]: 234 µM (inactive) | GI50 [37]: > 347 µM (inactive) | GI50 [38]: > 347 µM (inactive) | GI50 [39]: 13.8 µM (inactive) | GI50 [40]: > 347 µM (inactive) | GI50 [41]: 58.3 µM (inactive) | GI50 [42]: > 347 µM (inactive) | GI50 [43]: > 347 µM (inactive) | GI50 [44]: > 321 µM (inactive) | GI50 [45]: > 347 µM (inactive) | GI50 [46]: > 347 µM (inactive) | GI50 [47]: > 210 µM (inactive) | GI50 [48]: > 347 µM (inactive) | GI50 [49]: 237 µM (inactive) | GI50 [50]: > 347 µM (inactive) | GI50 [51]: > 347 µM (inactive) | GI50 [52]: > 220 µM (inactive) | GI50 [53]: > 347 µM (inactive) | GI50 [54]: 12.3 µM (inactive) | GI50 [55]: 149 µM (inactive) | GI50 [56]: > 204 µM (inactive) | GI50 [57]: 213 µM (inactive) | GI50 [58]: > 347 µM (inactive)

C=CCC1=C(C)C[C@@H]2CCC(=O)C=C12
GI50 [1]: > 100 µM (inactive) | GI50 [2]: > 100 µM (inactive) | GI50 [3]: > 100 µM (inactive) | GI50 [4]: > 100 µM (inactive) | GI50 [5]: > 100 µM (inactive) | GI50 [6]: > 100 µM (inactive) | GI50 [7]: > 100 µM (inactive) | GI50 [8]: > 100 µM (inactive) | GI50 [9]: > 100 µM (inactive) | GI50 [10]: > 100 µM (inactive) | GI50 [11]: > 100 µM (inactive) | GI50 [13]: > 100 µM (inactive) | GI50 [14]: > 100 µM (inactive) | GI50 [15]: > 100 µM (inactive) | GI50 [16]: > 100 µM (inactive) | GI50 [17]: > 100 µM (inactive) | GI50 [18]: > 100 µM (inactive) | GI50 [19]: > 100 µM (inactive) | GI50 [21]: > 100 µM (inactive) | GI50 [22]: > 100 µM (inactive) | GI50 [23]: > 100 µM (inactive) | GI50 [24]: > 100 µM (inactive) | GI50 [25]: > 100 µM (inactive) | GI50 [28]: > 100 µM (inactive) | GI50 [29]: > 100 µM | GI50 [30]: > 100 µM (inactive) | GI50 [31]: > 100 µM (inactive) | GI50 [32]: > 100 µM (inactive) | GI50 [33]: > 100 µM (inactive) | GI50 [34]: > 100 µM (inactive) | GI50 [35]: > 100 µM (inactive) | GI50 [36]: > 100 µM (inactive) | GI50 [38]: > 100 µM (inactive) | GI50 [39]: > 100 µM (inactive) | GI50 [40]: > 100 µM (inactive) | GI50 [41]: > 100 µM (inactive) | GI50 [42]: > 100 µM (inactive) | GI50 [43]: > 100 µM (inactive) | GI50 [44]: > 100 µM (inactive) | GI50 [45]: > 100 µM (inactive) | GI50 [46]: > 100 µM (inactive) | GI50 [47]: > 100 µM (inactive) | GI50 [48]: > 100 µM (inactive) | GI50 [49]: > 100 µM (inactive) | GI50 [50]: > 100 µM (inactive) | GI50 [51]: > 100 µM (inactive) | GI50 [52]: > 100 µM (inactive) | GI50 [53]: > 100 µM (inactive) | GI50 [55]: > 100 µM (inactive) | GI50 [56]: > 100 µM (inactive) | GI50 [57]: > 100 µM (inactive) | GI50 [58]: > 100 µM (inactive)
